According to patent US11565998B2, “Succinate prodrug, compositions containing the succinate prodrug and uses thereof” (ABLIVA AB, priority 2019, dated 2023):

Assays:
[1] = Solubility in aqueous formulations in comparison to other succinate prodrugs; type: physicochemical; conditions: thermodynamic from solid
Protocol: Solubility of Compound 1 in aqueous formulations in comparison to other succinate prodrugs was assessed by dissolving solid material in aqueous formulations and measuring the quantity in solution by HPLC (−MS). […] In many cases the max solubility of other prodrugs was lower than 100 uM. See Table 21 for example solubility data in PBS pH7.4 for other succinate prodrugs.

[2] = Mineral instability (inorganic salts in water); type: physicochemical; conditions: 1 mg/ml, room temperature
Protocol: Compound 1 Batch 14 (2-3 mg) was dissolved in water for injection at room temperature (WFI) (1 mg/ml) containing different sources of minerals commonly found in tap water (with different accompanying counter ions to be able to distinguish differences between the effects of cation or anion) and samples were taken at different time intervals for HPLC analysis.
Mineral sources used in the form of inorganic salts:
CuCl2, CaCl2), NiSO4, CoCl2, NH4Cl, MnCl2, NaF, NaNO3, CuSO4, Ca(NO3)2, AlSO4, CaCO3, (NH4)2CO3.

solubility ([1]; 0.9% saline, saline or isotonic): > 500 mg/mL
solubility ([1]; aqueous buffer, PBS (pH 7.4)): 190 mg/mL
solubility ([1]; pH 7.4, aqueous buffer, PBS pH7.4): > 100 µM
solubility ([1]; water): > 350 mg/mL
Percentage of Compound 1 remaining compared to T = 0 ([2]; (NH4)2CO3 in water, batch 14, day 0): 100%
Percentage of Compound 1 remaining compared to T = 0 ([2]; (NH4)2CO3 in water, batch 14, day 7): 91.3%
Percentage of Compound 1 remaining compared to T = 0 ([2]; (NH4)2CO3 in water, batch 14, day 14): 87.4%
Percentage of Compound 1 remaining compared to T = 0 ([2]; AlSO4 in water, batch 14, day 0): 100%
Percentage of Compound 1 remaining compared to T = 0 ([2]; AlSO4 in water, batch 14, day 7): 99.8%
Percentage of Compound 1 remaining compared to T = 0 ([2]; AlSO4 in water, batch 14, day 14): 100%
Percentage of Compound 1 remaining compared to T = 0 ([2]; Ca(NO3)2 in water, batch 14, day 0): 100%
Percentage of Compound 1 remaining compared to T = 0 ([2]; Ca(NO3)2 in water, batch 14, day 7): 99.4%
Percentage of Compound 1 remaining compared to T = 0 ([2]; Ca(NO3)2 in water, batch 14, day 14): 98.9%
Percentage of Compound 1 remaining compared to T = 0 ([2]; CaCO3 in water, batch 14, day 0): 100%
Percentage of Compound 1 remaining compared to T = 0 ([2]; CaCO3 in water, batch 14, day 7): 79.5%
Percentage of Compound 1 remaining compared to T = 0 ([2]; CaCO3 in water, batch 14, day 14): 66.0%
Percentage of Compound 1 remaining compared to T = 0 ([2]; CaCl2 in water, batch 14, day 0): 100%
Percentage of Compound 1 remaining compared to T = 0 ([2]; CaCl2 in water, batch 14, day 7): 100%
Percentage of Compound 1 remaining compared to T = 0 ([2]; CaCl2 in water, batch 14, day 14): 97.9%
Percentage of Compound 1 remaining compared to T = 0 ([2]; CoCl2 in water, batch 14, day 0): 100%
Percentage of Compound 1 remaining compared to T = 0 ([2]; CoCl2 in water, batch 14, day 7): 101%
Percentage of Compound 1 remaining compared to T = 0 ([2]; CoCl2 in water, batch 14, day 14): 101%
Percentage of Compound 1 remaining compared to T = 0 ([2]; CuCl2 in water, batch 14, day 0): 100%
Percentage of Compound 1 remaining compared to T = 0 ([2]; CuCl2 in water, batch 14, day 7): 99.5%
Percentage of Compound 1 remaining compared to T = 0 ([2]; CuCl2 in water, batch 14, day 14): 98.3%
Percentage of Compound 1 remaining compared to T = 0 ([2]; CuSO4 in water, batch 14, day 0): 100%
Percentage of Compound 1 remaining compared to T = 0 ([2]; CuSO4 in water, batch 14, day 7): 100%
Percentage of Compound 1 remaining compared to T = 0 ([2]; CuSO4 in water, batch 14, day 14): 99.4%
Percentage of Compound 1 remaining compared to T = 0 ([2]; MnCl2 in water, batch 14, day 0): 100%
Percentage of Compound 1 remaining compared to T = 0 ([2]; MnCl2 in water, batch 14, day 7): 98.9%
Percentage of Compound 1 remaining compared to T = 0 ([2]; MnCl2 in water, batch 14, day 14): 99.2%
Percentage of Compound 1 remaining compared to T = 0 ([2]; NH4Cl in water, batch 14, day 0): 100%
Percentage of Compound 1 remaining compared to T = 0 ([2]; NH4Cl in water, batch 14, day 7): 101%
Percentage of Compound 1 remaining compared to T = 0 ([2]; NH4Cl in water, batch 14, day 14): 99.8%
Percentage of Compound 1 remaining compared to T = 0 ([2]; NaF in water, batch 14, day 0): 100%
Percentage of Compound 1 remaining compared to T = 0 ([2]; NaF in water, batch 14, day 7): 101%
Percentage of Compound 1 remaining compared to T = 0 ([2]; NaF in water, batch 14, day 14): 100%
Percentage of Compound 1 remaining compared to T = 0 ([2]; NaNO3 in water, batch 14, day 0): 100%
Percentage of Compound 1 remaining compared to T = 0 ([2]; NaNO3 in water, batch 14, day 7): 99.2%
Percentage of Compound 1 remaining compared to T = 0 ([2]; NaNO3 in water, batch 14, day 14): 99.4%
Percentage of Compound 1 remaining compared to T = 0 ([2]; NiSO4 in water, batch 14, day 0): 100%
Percentage of Compound 1 remaining compared to T = 0 ([2]; NiSO4 in water, batch 14, day 7): 98.4%
Percentage of Compound 1 remaining compared to T = 0 ([2]; NiSO4 in water, batch 14, day 14): 99.1%
Percentage of Compound 1 remaining compared to T = 0 ([2]; WFl, batch 14, day 0): 100%
Percentage of Compound 1 remaining compared to T = 0 ([2]; WFl, batch 14, day 7): 98.7%
Percentage of Compound 1 remaining compared to T = 0 ([2]; WFl, batch 14, day 14): 97.7%
SMILES: COC(=O)CCC(=O)SCCNC(C)=O [Compound 1, Methyl 3-[(2-acetylaminoethylthio)carbonyl]propionate]
